Assay results: patent US20100240580A1, “AZOLOARINE DERIVATIVES, METHOD FOR THE PRODUCTION THEREOF, PHARMACEUTICALS CONTAINING THESE COMPOUNDS AND THE USE THEREOF” (SANOFI-AVENTIS, priority 2007, published 2010)

target: T1, SCD1 (Rattus norvegicus, UniProt P07308); test: stearoyl-CoA desaturase (SCD1) activity, thin-layer chromatography assay with rat liver microsomes; format: biochemical; settings: compound at 10 μM, [1-14C]-stearic acid, 37° C., 1 h
T1 construct: The resuspended microsome fraction was stored at −80° C; from tissue; host or cells: liver microsomes of male Wistar rats fed a carbohydrate-rich, low-fat diet
T1 sequence (P07308 1-358): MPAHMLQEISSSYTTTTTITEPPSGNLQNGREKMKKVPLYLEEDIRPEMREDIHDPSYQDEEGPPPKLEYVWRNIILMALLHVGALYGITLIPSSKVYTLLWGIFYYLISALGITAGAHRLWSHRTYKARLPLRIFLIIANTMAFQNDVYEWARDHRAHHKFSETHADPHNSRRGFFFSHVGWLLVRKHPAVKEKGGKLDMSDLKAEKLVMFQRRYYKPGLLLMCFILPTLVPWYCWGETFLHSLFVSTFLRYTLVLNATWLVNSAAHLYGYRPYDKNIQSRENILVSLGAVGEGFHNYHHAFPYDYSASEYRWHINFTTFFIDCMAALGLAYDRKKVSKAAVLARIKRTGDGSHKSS
Experimental: The activity of the compounds of the invention of the formula I was investigated in the following assay system with microsomal enzymes:
The livers of male Wistar rats which (to induce SCD1 expression) have been fed with a carbohydrate-rich, low-fat diet were homogenized with a Potter tissue homogenizer and differential centrifugation in a buffer which contained 250 mM sucrose and 5 mM HEPES (pH 7.0). The resuspended microsome fraction was stored at −80° C. The stearoyl-CoA desaturase activity was determined in a thin-layer chromatography assay with […] stearic acid. Stated briefly, the respective compounds of the invention (in DMSO in a final concentration of 1% [v/v]) were incubated with 15 μg of the rat liver microsomes in 200 μl of assay buffer (6 mM MgCl2, 250 mM sucrose, 150 mM KCl, 40 mM NaF, 100 mM Na2HPO4 (pH 7.4), 1.3 mM ATP, 1.5 mM reduced glutathione, 60 μM CoA, 0.33 mM nicotinamide and 0.94 mM NADH) at room temperature for 10 min. 0.5 μCi of [1-^14C]-stearic acid (55 mCi/mmol) was added, and the mixture was incubated at 37° C. for 1 h. The radiolabeled fatty acids were then hydrolyzed with 2.5 M KOH/MeOH:H2O (4:1) at 65° C. for 4 h, protonated with 280 μl of formic acid and extracted with 500 μl of hexane. The TLC plates were immersed in 10% AgNO3 and heat-activated before use. 150 μl of the hexane phase were put on the plates, and the TLC plates were developed in buffer (chloroform:methanol:acetic acid:water [90:8:1:0.8]) and dried. The plates were read in a PhosphoImager to quantify the SCD1 activity.
The skilled person is able to modify this assay to determine the inhibition of stearoyl-CoA desaturase activity in various respects.

Row | SMILES | % Inhibition (10 μM)
1 | O=C(NCc1ccc(Cl)s1)c1ccc2nc(-c3ccc(Oc4ccccc4)cc3)[nH]c2c1 [Example 8, 2-(4-Phenoxyphenyl)-3H-benzimidazole-5-(5-chlorothiophen-2-ylmethyl)carboxamide] | 37%
2 | O=C(NCc1nccs1)c1ccc2nc(-c3ccc(Oc4ccccc4)cc3)[nH]c2c1 [Example 9, 2-(4-Phenoxyphenyl)-3H-benzimidazole-5-(thiazol-2-ylmethyl)carboxamide] | 29%
3 | CC(C)CCNC(=O)c1ccc2nc(-c3ccc(Oc4ccccc4Cl)cc3)[nH]c2c1 [Example 13, 2-[4-(2-Chlorophenoxy)phenyl]-3H-benzoimidazole-5-(3-methylbutyl)carboxamide] | 58%
4 | O=C(NCCC1CC1)c1ccc2nc(-c3ccc(Oc4ccccc4Cl)cc3)[nH]c2c1 [Example 14, 2-[4-(2-Chlorophenoxy)phenyl]-3H-benzoimidazole-5-(2-cyclopropylethyl)carboxamide] | 80%
5 | O=C(NCc1ccc(Cl)s1)c1ccc2nc(-c3ccc(Oc4ccccc4Cl)cc3)[nH]c2c1 [Example 15, 2-[4-(2-Chlorophenoxy)phenyl]-3H-benzoimidazole-5-(5-chlorothiophen-2-yl-methyl)carboxamide] | 95%
6 | O=C(NCc1nccs1)c1ccc2nc(-c3ccc(Oc4ccccc4Cl)cc3)[nH]c2c1 [Example 16, 2-[4-(2-Chlorophenoxy)phenyl]-3H-benzoimidazole-5-(thiazol-2-ylmethyl)carboxamide] | 86%
7 | O=C(NCc1cccs1)c1ccc2nc(-c3ccc(C(=O)c4ccccc4C(F)(F)F)cc3)[nH]c2c1 [Example 19, 2-[4-(2-Trifluoromethylbenzoyl)phenyl]-3H-benzimidazole-5-(thiophen-2-ylmethyl)-carboxamide] | 100%
8 | CC(C)CNC(=O)c1ccc2nc(-c3ccc(C(=O)c4ccccc4C(F)(F)F)cc3)[nH]c2c1 [Example 20, 2-[4-(2-Trifluoromethylbenzoyl)phenyl]-3H-benzoimidazole-5-isobutylcarboxamide] | 77%
9 | O=C(NCCC1CC1)c1ccc2nc(-c3ccc(Oc4ccccc4C(F)(F)F)cc3)[nH]c2c1 [Example 23, 2-[4-(2-Trifluoromethylphenoxy)phenyl]-3H-benzimidazole-5-(2-cyclopropylethyl)-carboxamide] | 96%
10 | CC(C)CCNC(=O)c1ccc2nc(-c3ccc(Oc4ccccc4C(F)(F)F)cc3)[nH]c2c1 [Example 24, 2-[4-(2-Trifluoromethylphenoxy)phenyl]-3H-benzimidazole-5-(3-methylbutyl)carboxamide] | 77%
11 | O=C(NCc1nccs1)c1ccc2nc(-c3ccc(Oc4ccccc4C(F)(F)F)cc3)[nH]c2c1 [Example 25, 2-[4-(2-Trifluoromethylphenoxy)phenyl]-3H-benzimidazole-5-(thiazol-2-ylmethyl)carboxamide] | 100%
12 | O=C(NCc1ccc(Cl)s1)c1ccc2nc(-c3ccc(C(=O)c4ccccc4C(F)(F)F)cc3)[nH]c2c1 [Example 27, 2-[4-(2-Trifluoromethylbenzoyl)phenyl]-3H-benzimidazole-5-(5-chlorothiophen-2-ylmethyl)-carboxamide] | 100%
13 | O=C(NCc1nccs1)c1ccc2[nH]c(-c3ccc(C(=O)c4ccccc4C(F)(F)F)cc3)nc2c1 [Example 28, 2-[4-(2-Trifluoromethylbenzoyl)phenyl]-1H-benzimidazole-5-(thiazol-2-ylmethyl)-carboxamide] | 100%
